Data published in ChEMBL document CHEMBL5344482, “Deconvoluting low yield from weak potency in direct-to-biology workflows with machine learning” (RSC Med Chem, 2024).

Experiments:
[1] = biological target: Replicase polyprotein 1ab (Severe acute respiratory syndrome coronavirus 2) (UniProt P0DTD1); assay: Inhibition of SARS-Cov-2 main protease using fluorogenic substrate [5-FAM]-AVLQSGFR-[Lys(Dabcyl)]-K-amide by fluorogenic assay relative to control
[2] = biological target: Replicase polyprotein 1ab (Severe acute respiratory syndrome coronavirus 2, UniProt P0DTD1); assay: Inhibition of SARS-Cov-2 main protease using fluorogenic substrate [5-FAM]-AVLQSGFR-[Lys(Dabcyl)]-K-amide by fluorogenic assay

| SMILES | inhibition [1] [%] | IC50 [2] [nM] |
| --- | --- | --- |
| Nc1ncc(C(F)(F)F)cc1Cl | 35 | – |
| NCCc1ccc(C(F)F)cc1 | – | 50 |
| NCCc1cccc(Cl)c1 | – | 52 |
